Common to all, as to format: cell-based
Experiment [1] deals with 7 cephalosporinase - producing E. coli strains. Description: standard MIC test, cephaloridine with synergist. To be noted: Escherichia coli, read-out: Geometric Mean (MIC). From the text:
A composition of sodium 6β-methanesulphonyloxypenicillanate and cephaloridine against 7 cephalosporinase - producing E. coli strains results in the following MIC's in a standard test.

The subject of a further experiment is Staph Russell. Description: standard MIC test, compound alone and in combination with ampicillin.
The next experiment concerns Proteus C889. The experiment is described as above.
The mark [2] stands for this setting: substance alone (the 1st table).
The mark [3] stands for this setting: substance alone (the 2nd table).

Structures are written as SMILES.

For the compound `O=C(Cc1cccs1)N[C@@H]1C(=O)N2C(C(=O)[O-])=C(C[n+]3ccccc3)CS[C@H]12` [Cephaloridine], in experiment [1], the MIC is 152 µg/mL.
Regarding `CC1(C)S[C@@H]2[C@H](NC(=O)[C@H](N)c3ccccc3)C(=O)N2[C@H]1C(=O)O` [Ampicillin], the MIC in the experiment on Staph Russell (setting [2]) was 62.5 µg/mL; with Staph Russell (setting [3]) it was 250 µg/mL; with Proteus C889 (setting [2]), 1000 µg/mL; in the experiment with Proteus C889 (setting [3]), over 2000 µg/mL.
On to `CC1(C)S[C@@H]2[C@H](OS(=O)(=O)c3ccc(Br)cc3)C(=O)N2[C@H]1C(=O)O` [Calcium 6β-p-bromobenzenzsulphonyloxypenicillanate], for which the MIC was 16 µg/mL in the experiment on Staph Russell (setting [3]) and over 500 µg/mL with Proteus C889 (setting [3]).
Turning to `CC1(C)S[C@@H]2[C@H](OS(C)(=O)=O)C(=O)N2[C@H]1C(=O)O` [Sodium 6β-methanesulphonyloxypenicillanate], the figures for the MIC with Staph Russell (setting [2]) and in the experiment on Proteus C889 (setting [2]) were 4 µg/mL and 62.5 µg/mL, respectively.
